Experimental data: the COVID Moonshot data (paper PMC11187573), “Identification of SARS-CoV-2 Mpro inhibitors through deep reinforcement learning for de novo drug design and computational chemistry approaches” (RSC Medicinal Chemistry, 2024)

Key:
[1] = biological target: SARS-CoV-2 Main Protease (SARS-CoV-2) (UniProt P0DTD1)
Procedure: Compounds were seeded into assay-ready plates (Greiner 384 low volume, cat 784900) using an Echo 555 acoustic dispenser, and DMSO was back-filled for a uniform concentration in assay plates (DMSO concentration maximum 1%) Screening assays were performed in duplicate at 20µM and 50µM. […] Dose response assays were performed in 12 point dilutions of 2-fold, typically beginning at 100µM. […] Reagents for Mpro assay were dispensed into the assay plate in 10µl volumes for a final volume of 20µL.
Mpro was pre-incubated for 15 minutes at room temperature with compound before addition of substrate and a further 30 minute incubation. Protease reaction was measured in a BMG Pherastar FS with a 480/520 ex/em filter set. Raw data was mapped and normalized to high (Protease with DMSO) and low (No Protease) controls using Genedata Screener software.

[2] = biological target: SARS-CoV-2 Main Protease (SARS-CoV-2) (UniProt P0DTD1); remark: listed apart in the source

Structure (SMILES)	inhibition ([1]; 50.0 µM) [%]	inhibition ([2]; 20.0 µM) [%]	inhibition ([2]; 50.0 µM) [%]	relative solubility at 20 uM	relative solubility at 100 uM	inhibition ([1]; 20.0 µM) [%]	IC50 [2] [µM]	IC50 [1] [µM]
CC(=O)NCCc1cn(CC(=O)N2CCOCC2)c2ccccc12	6.56	0	0	0.97	0.96	–	–	–
N#Cc1ccc(Nc2ccc(NC(=O)Nc3cccnc3)cc2)nc1	-3.7	0	0	1	0.91	-1.31	–	–
Cc1ccncc1NC(=O)C(C)(C)c1cccc(Cl)c1	68	–	66.9	1	1	49.3	24.5	–
O=C(CCl)N1CCN(S(=O)(=O)c2ccsc2)CC1	73.7	96.4	–	1	1	78.6	0.484	1.63
O=C(CC(=O)N1CCOCC1)NCc1ccccc1	15.1	0	0	0.99	1	-1.44	–	–
CNS(=O)(=O)Cc1ccc2[nH]cc(CCN(C)C)c2c1	2.38	0	–	1	1	4.66	–	–
O=C(O)[C@@H](Cc1nc(=O)cc[nH]1)NCc1ccc(Cl)s1 (stereo in doubt)	4.85	–	2.07	1.01	1	6.7	–	–
CC(C)c1ncncc1NC(=O)C(C)c1cccc(Cl)c1 (stereo unspecified)	19	–	1.6	1.01	1	6.43	–	–
O=C(c1cc(=O)[nH]c2ccccc12)N1CCN(c2ccc(F)cc2)CC1	78.5	–	52.3	0.99	0.99	57	52.7	–
CC(=O)NCCc1c[nH]c2c(CN3CCN(C(=O)CCl)CC3)cccc12	85.7	–	100	0.95	0.95	62.8	11.5	–
N#Cc1ccc(O)c(NC(=O)Cc2cccnc2)c1	-8.48	–	0	1	0.95	-15.4	–	–
CCC(C)CC(=O)N1CCCC(NC(=O)Cn2c(C)cc(C)nc2=O)CC1 (stereo unspecified)	-19.4	–	-29.6	0.98	1	-4.95	–	–
O=C(Cc1c[nH]c2ncccc12)NCc1cc(Cl)ccn1	8.45	0	–	1	0.98	2.58	–	–
O=C(Nc1ccnnc1)NC(Cc1ccccc1)C(=O)N1CCCC1 (stereo unspecified)	3.23	0	0	1	1	0.0835	–	–
Cc1noc(C)c1CS(=O)(=O)Cc1cccc(Cl)c1	-0.0149	–	0	0.99	1	1.07	–	–
O=C(NCCNc1ccncc1)c1cccc(S(=O)(=O)Nc2ccccc2-c2ccccc2)c1	-32.8	–	-3.32	0.95	0.94	-20.4	–	–
CC(=O)NCCc1c[nH]c2c(NCc3ccc4nc[nH]c4c3)cc(F)cc12	12.1	–	-4.42	0.64	0.86	-13.7	–	–
O=C(c1cc(=O)[nH]c2ccc(F)cc12)N1CCN(S(=O)(=O)c2cccc(Cl)c2)CC1	25.7	–	52.8	0.98	0.87	1.39	–	–
N#Cc1ccc(CNC(=O)Cc2c[nH]c3ncccc23)nc1	0.616	0	–	1	1	4.15	–	–
Cc1ccncc1Cn1ccccc1=O	7.02	–	6.5	1	1	3.62	–	–
Cc1ccc(Oc2cccc(NC(=O)NCc3cnnn3C)c2)c(C)c1	-12.8	0	–	0.96	0.75	-10.7	–	–
Cc1ccncc1NC(=O)CCNC(=O)c1ccccc1F	-15.8	0	0	1	1	–	–	–
O=C(c1cc(=O)[nH]c2ccccc12)N1CCN(Cc2ccccc2)CC1	87.8	–	82.4	0.99	1	74.5	18.8	–
COC(=O)C(c1ccccc1Cl)N1CCC2SC(=O)C=C2C1 (stereo unspecified)	-5.13	–	11.5	0.82	0.81	-46.2	–	–
O=C1/C(=C/c2ccc(O)cc2)c2ccccc2C(=O)N1Cc1ccc2c(c1)OCO2	-3.72	–	20.1	0.62	0.48	6.21	–	–
COc1ccccc1OCCNC(=O)c1cc(=O)[nH]c2ccccc12	92.7	70.1	83.8	0.99	0.96	83.7	3.46	7.23

Structure (SMILES)	inhibition ([1]; 50.0 µM) [%]	inhibition ([2]; 20.0 µM) [%]	inhibition ([2]; 50.0 µM) [%]	relative solubility at 20 uM	relative solubility at 100 uM	inhibition ([1]; 20.0 µM) [%]	IC50 [2] [µM]	IC50 [1] [µM]
O=C(NCc1ccc(Cl)cc1CN1CCN(C(=O)CCl)CC1)[C@@H]1CCCOC1 (stereo in doubt)	77.9	–	100	1	1	56.7	20.1	–
C=CC(=O)N(c1ccc(C(F)(F)F)cc1)C(C(=O)Nc1c(C)cccc1CC)c1cccnc1 (stereo unspecified)	38.6	23.9	–	0.89	0.79	22.3	–	–
CN1CCC(C(=O)NC2CCCCC2NC(=O)C2CCCCC2)CC1 (stereo unspecified)	-19.4	0	–	1	1.01	-19.4	–	–
Cc1ccncc1NC(=O)CC(O)C1CC1 (stereo unspecified)	1.39	–	2.72	1	1.01	-48	–	–
N#Cc1ccc(NC(=O)Nc2cccnc2)cc1	11.6	0	–	1	1	5.82	–	–
Cc1ccncc1NC(=O)Cc1ccc(S(N)(=O)=O)cc1	10.9	6.42	-0.94	1	1	4.76	–	–
Cn1cc(S(N)(=O)=O)cc1CC(=O)Nc1cccc(C(=O)NCc2ccccn2)c1	-0.596	–	0	1	1	-21.5	–	–
Cc1cc(C)c(C)c(S(=O)(=O)N2CCN(C(=O)c3cc[nH]c(=O)c3)CC2)c1C	5.56	–	0	0.99	0.98	-1.5	–	–
Cc1ccc(C)c(S(=O)(=O)N2CCN(C(=O)CCl)CC2)c1	101	90.8	96.3	0.99	0.98	–	–	–
Cc1nnc(NC(=O)Cc2cccc(Cl)c2)n1C	0.874	–	-14	1	1	-6.05	–	–
O=C(CCl)Nc1cccc(-c2ccc3c(c2)CCCC3)c1	15.2	–	47.7	0.9	0.87	10.8	–	–
C=CC(=O)N(c1ccc(C(C)(C)C)cc1)C(C(=O)NCCc1cccc(F)c1)c1cncc(C)c1 (stereo unspecified)	78.2	–	0	0.8	0.28	49	–	–
O=C(C1CCN(c2ccncc2)CC1)N1CCCCC1	-18.6	0	-0.3	0.99	1	–	–	–
O=C(Nc1cnccc1Cl)c1cc(Cl)ccc1O	75.2	15.5	65.9	1	0.98	66.8	–	–
O=C(Cc1ccccc1OC1CCOC1)OCc1cnn[nH]1 (stereo unspecified)	20.7	0	0	1	1	–	–	–
Cc1cccc(CC2CCN(C(=O)CCl)CC2)c1	90.5	–	87.1	1	1	62.9	4.49	–
Cc1ccncc1NC(=O)Cc1cncc(Cl)c1	46	–	71.4	1	1.01	28.8	–	–
Cc1c(C(=O)NC(CC(=O)O)c2cccc(Cl)c2)cnc2ccccc12 (stereo unspecified)	6.12	–	8.52	1	1	-13	–	–
O=C(Nc1nncn1C1CC1)[C@@H]1CCOc2ccc(Cl)cc21 (stereo in doubt)	19.5	–	-10.4	0.99	0.99	-7.38	–	–
NC1=Nc2nc3ccccc3n2C(c2ccc(-c3nc4ccccc4s3)o2)N1 (stereo unspecified)	-3.34	–	38.8	0.53	0.23	-25.2	–	–
Cc1cccc(C)c1OCC(=O)NCCc1ccccc1	7.25	0	0	1	0.98	1.78	–	–
C=CC(=O)N(c1cc(C(C)(C)C)on1)C(C(=O)Nc1c(C)cccc1CC)c1cccnc1 (stereo unspecified)	21.1	1.49	–	0.99	0.9	7.33	–	–
C=CC(=O)N(c1ccc(C(C)C)nc1)C(C(=O)NC(C)(C)C)c1cccnc1 (stereo unspecified)	11.4	0	–	1	0.99	11.7	–	–
Cc1cc(Cl)cc(NC(=O)Nc2cccnc2)c1	12.7	0	35.4	1	1	–	–	–
C=CC(=O)N(c1ccc(C(C)(C)C)cc1)C(C(=O)NC(C)(C)C)c1cncc(Br)c1C (stereo unspecified)	7.84	12.9	35.3	0.98	0.92	-4.32	–	–
C=CC(=O)N(c1ccc(C(C)(C)C)cc1)C(C(=O)Nc1ccc(OC)cc1)c1cccnc1 (stereo unspecified)	12	0	0	0.95	0.71	–	–	–

Structure (SMILES)	inhibition ([1]; 50.0 µM) [%]	inhibition ([2]; 20.0 µM) [%]	inhibition ([2]; 50.0 µM) [%]	relative solubility at 20 uM	relative solubility at 100 uM	inhibition ([1]; 20.0 µM) [%]	IC50 [2] [µM]	IC50 [1] [µM]
O=C(C1CCN(c2ccncc2)CC1)N1CCS(=O)(=O)CC1	-27.4	19.7	42.9	1	1	–	–	–
CC1CC(C)CN(C(=O)c2ccccc2NC(=O)NCc2ccoc2)C1 (stereo unspecified)	8.34	0	0	1	0.99	–	–	–
C=CC(=O)N(c1ccc(C(C)(C)C)cc1)C(C(=O)Nc1ccc(OC)cc1C)c1cccnc1 (stereo unspecified)	22.4	0	-2.25	0.97	0.57	–	–	–
COc1c(NC(=O)Cc2cccc(Cl)c2Cl)c(C)nn1C	2.19	–	0	1	1.01	2.78	–	–
Cc1ccncc1NC(=O)C(C)Cc1ccccc1 (stereo unspecified)	-128	–	0	1	1	-54.9	–	–
C=CC(=O)N(c1ccc(C(C)(C)C)cc1)C(C(=O)NCCc1cccc(F)c1)c1cccnc1 (stereo unspecified)	83.4	91.8	100	0.98	0.55	63.3	3.36	–
C=CC(=O)N(c1ccc(C(C)(C)C)cc1)C(C(=O)Nc1ccccc1OC)c1cccnc1 (stereo unspecified)	44.2	0	25.4	0.97	0.95	26.3	–	–
NC(=O)[C@@H]1CN(C2CCOCC2)C[C@H]1c1ccccc1 (stereo in doubt)	-23	0	0	1	1	-22.2	–	–
CC(C(=O)Nc1cccc(NC2CCCC2)c1)c1cnccn1 (stereo unspecified)	0.913	0	-2.15	1	0.98	-2.77	–	–
O=C(Cc1cccc(Cl)c1)Nn1cnnc1	-21.6	–	0	1	1	-9.88	–	–
NS(=O)(=O)c1ccc(N2CCC(CN3CCCCCC3)CC2)cc1	-0.987	-2.46	5.22	0.99	0.91	-5.53	–	–
O=C(CCl)N1CCN(Cc2cccc(Cl)c2)CC1	108	99.8	100	1	1	–	0.545	2.54
O=C(NCCN1CCN(c2ccccc2)CC1)NCc1ccccn1	12.5	0	0	0.99	0.99	–	–	–
CCOCC(=O)NCc1ccc(CNC(=O)Cn2nnc3ccccc32)cc1	1.31	–	0	0.99	1	1.82	–	–
C=CC(=O)N(c1ccc2ncsc2c1)C(C(=O)Nc1ccc(Cl)cc1)c1cccnc1 (stereo unspecified)	25.3	2.57	–	0.87	0.69	8.95	–	–
CSc1ccncc1NC(=O)Cc1ccc2c(c1)CCCC2	11.6	–	0	0.99	0.67	-1.16	–	–
Cn1cncc1CNC(=O)Nc1cccc(OCC(F)F)n1	36.2	0	28.4	1	1	–	–	–
CCCN(CC1COc2ccccc2O1)C(=O)c1cc(=O)[nH]c2cc(F)ccc12 (stereo unspecified)	8.33	–	0	0.98	0.98	5.21	–	–
Cc1ccc(-c2cc(C(F)(F)F)nn2-c2ccc(S(N)(=O)=O)cc2)cc1	11.9	2.17	–	0.91	0.79	6.23	–	–
Cc1ccncc1NC(=O)CCOC1CC1	22	–	0	1	1	8.26	–	–
COc1ccc2c(c1)C(C(=O)Nc1cnccc1-n1cccn1)CCC2 (stereo unspecified)	7.3	–	0	0.99	0.95	-15.2	–	–
Cc1cc(NC(=O)Cc2cncnc2)cc(OC2CC(=O)N2)c1 (stereo unspecified)	72.7	–	45	1.01	1	49.3	–	–
O=C(Cc1cccnc1)Nc1cccc(OC2CC(=O)N2)c1 (stereo unspecified)	71.8	–	26.4	0.97	0.99	39.6	–	–
COC(=O)C(c1ccccc1Cl)N1CCc2sccc2C1 (stereo unspecified)	4.1	–	0	0.97	0.79	-3.49	–	–
